# Data: US8063071B2 (GlaxoSmithKline, LLC, priority 2007, dated 2011)
# Structures can show the parent of a compound that is named as a salt.
# Assays:
# [1] = system: human monocyte stimulated cytokine production (TNF-α); experiment: Monocyte assay (LPS-stimulated TNF-α production); format: cell-based; conditions: 24 h, 200 ng/mL LPS, TNF-α by ELISA
# Procedure: Effect of IKK-β inhibition on human monocyte stimulated cytokine production was assessed as follows: Monocytes were isolated from heparinized whole blood by Ficoll gradient, followed by purification of CD14+ cells using MACS magnetic cell separation beads. Isolated monocytes were then adhered to 96-well culture plates at 1×10^6 cells/mL in RPMI 1640 10% FBS (JRH Biosciences, Lenexa Kans.) for 2 h. Test compounds are added to the wells 30 minutes prior to stimulation with a final vehicle concentration of 0.1% DMSO. Monocytes were activated by the addition of 200 ng/mL endotoxin (LPS; E. coli serotype 026:B6)(Sigma, St. Louis, Mo.) and incubated for 24 hrs at 37 C. Cell-free supernates were analyzed by ELISA for TNF-α using Pharmingen matched pair Abs. Viability of the cells was determined by 10% trypan blue exclusion.
# [2] = target: T1, Recombinant human IKKβ (residues 1-737) (Homo sapiens, UniProt O14920); experiment: IKK2 assay (TR-FRET); format: biochemical; conditions: ATP 1 μM final, read-out: pIC50 against IKK2 (converted)
# T1 construct: Recombinant human IKKβ (residues 1-737); GST (C); made in house
# T1 sequence (O14920 1-737): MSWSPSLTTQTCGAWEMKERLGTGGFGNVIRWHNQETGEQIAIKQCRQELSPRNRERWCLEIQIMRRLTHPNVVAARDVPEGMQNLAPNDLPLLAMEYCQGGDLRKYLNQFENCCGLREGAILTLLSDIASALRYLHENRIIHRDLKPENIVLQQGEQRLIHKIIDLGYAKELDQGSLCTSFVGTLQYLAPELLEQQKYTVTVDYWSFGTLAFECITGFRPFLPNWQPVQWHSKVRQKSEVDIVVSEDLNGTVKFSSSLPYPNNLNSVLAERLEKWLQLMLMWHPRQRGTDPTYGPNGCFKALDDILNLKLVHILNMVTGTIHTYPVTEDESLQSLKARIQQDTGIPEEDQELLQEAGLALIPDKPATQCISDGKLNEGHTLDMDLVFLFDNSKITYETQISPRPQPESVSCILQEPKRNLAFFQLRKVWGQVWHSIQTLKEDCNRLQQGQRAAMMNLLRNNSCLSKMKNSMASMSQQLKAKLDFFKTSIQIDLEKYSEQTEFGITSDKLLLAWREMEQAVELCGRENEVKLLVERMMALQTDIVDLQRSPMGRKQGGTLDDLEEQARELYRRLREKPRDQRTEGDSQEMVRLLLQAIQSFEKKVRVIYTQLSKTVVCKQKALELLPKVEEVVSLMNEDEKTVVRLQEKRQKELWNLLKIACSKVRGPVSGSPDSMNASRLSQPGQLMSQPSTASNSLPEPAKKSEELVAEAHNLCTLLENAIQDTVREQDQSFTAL
# Procedure: Recombinant human IKKβ (residues 1-737) was expressed in baculovirus as a C-terminal GST-tagged fusion protein, and its activity was assessed using a time-resolved fluorescence resonance energy transfer (TR-FRET) assay. Briefly, IKK2 (0.5 nM-5 nM final) diluted in assay buffer (50 mM HEPES, 10 mM MgCl2, 1 mM CHAPS pH 7.4 with 1 mM DTT and 0.01% w/v BSA) was added to wells containing various concentrations of compound or DMSO vehicle (1.7% final). The reaction was initiated by the addition of GST-IB substrate (25 nM final)/ATP (1 μM final), in a total volume of 6 μl. The reaction was incubated for 15 minutes at room temperature, then terminated by the addition of 3 μl of detection reagent in buffer containing 50 mM EDTA (100 mM HEPES pH 7.4, 150 mM NaCl, 50 mM EDTA and 0.01% w/v BSA) containing antiphosphoserine-IB-32/36 monoclonal antibody 12C2 (Cell Signalling Technology, Beverly Mass., USA) labelled with W-1024 europium chelate (Wallac OY, Turku, Finland), and an APC-labelled anti-GST antibody (Prozyme, San Leandro, Calif., USA) was added and the reaction was further incubated for 60 minutes at room temperature. The degree of phosphorylation of GST-IB was measured using a BMG Rubystar plate reader (BMG Labtech, Aylesbury, UK) as a ratio of specific 665 nm energy transfer signal to reference europium 620 nm signal.
SMILES,IC50 [1],IC50 [2]
"CCS(=O)(=O)N1CCC(c2c[nH]c3c(C(N)=O)cc(-c4ccc5c(c4)C(NCC(C)C)CCC5)cc23)CC1 (stereo not drawn) [Example 34, 3-[1-(ethylsulfonyl)-4-piperidinyl]-5-{8-[(2-methylpropyl)amino]-5,6,7,8-tetrahydro-2-naphthalenyl}-1H-indole-7-carboxamide trifluoroacetate]",> 1 µM,
"CCOCCN(C)Cc1cc(-c2cc(C(N)=O)c3[nH]cc(C4CCN(S(=O)(=O)CC)CC4)c3c2)cs1 [Example 403, 5-(5-{[[2-(ethyloxy)ethyl](methyl)amino]methyl}-3-thienyl)-3-[1-(ethylsulfonyl)-4-piperidinyl]-1H-indole-7-carboxamide]",≤ 1.5 µM,
"CCS(=O)(=O)N1CCC(c2c[nH]c3c(C(N)=O)cc(-c4cc(F)cc(CN(C)C)c4)cc23)CC1 [Example 288, 5-{3-[(dimethylamino)methyl]-5-fluorophenyl}-3-[1-(ethylsulfonyl)-4-piperidinyl]-1H-indole-7-carboxamide trifluoroacetate]",,≤ 10 µM
"CCS(=O)(=O)N1CCC(c2c[nH]c3c(C(N)=O)cc(-c4csc(CN(C)C[C@H]5CCCO5)c4)cc23)CC1 [Example 414, 3-[1-(ethylsulfonyl)-4-piperidinyl]-5-[5-({methyl[(2R)-tetrahydro-2-furanylmethyl]amino}methyl)-3-thienyl]-1H-indole-7-carboxamide trifluoroacetate]",,≤ 10 µM
"CCS(=O)(=O)N1CCC(c2c[nH]c3c(C(N)=O)cc(-c4cc(CN(C)C)cc(CN(C)C)c4)cc23)CC1 [Example 278, 5-{3,5-bis[(dimethylamino)methyl]phenyl}-3-[1-(ethylsulfonyl)-4-piperidinyl]-1H-indole-7-carboxamide trifluoroacetate]",,> 10 µM
"CCC(CC)N1Cc2ccc(-c3cc(C(N)=O)c4[nH]cc(C5CCN(S(=O)(=O)CC)CC5)c4c3)cc2C1 [Example 423, 5-[2-(1-ethylpropyl)-2,3-dihydro-1H-isoindol-5-yl]-3-[1-(ethylsulfonyl)-4-piperidinyl]-1H-indole-7-carboxamide]",,≤ 10 µM
"CCS(=O)(=O)N1CCC(c2c[nH]c3c(C(N)=O)cc(-c4ccc(NS(=O)(=O)C5CCCC5)cc4)cc23)CC1 [Example 387, 5-{4-[(cyclopentylsulfonyl)amino]phenyl}-3-[1-(ethylsulfonyl)-4-piperidinyl]-1H-indole-7-carboxamide trifluoroacetate]",,≤ 10 µM
"CCS(=O)(=O)N1CCC(c2c[nH]c3c(C(N)=O)cc(-c4cccc(C(C)N(C)C)c4)cc23)CC1 (stereo not drawn) [Example 281, 5-{3-[1-(dimethylamino)ethyl]phenyl}-3-[1-(ethylsulfonyl)-4-piperidinyl]-1H-indole-7-carboxamide trifluoroacetate]",,≤ 10 µM
"CCS(=O)(=O)N1CCC(c2c[nH]c3c(C(N)=O)cc(-c4cc(CNCC(C)(C)C)c(OC)c(OC)c4)cc23)CC1 [Example 55, 5-[3-{[(2,2-dimethylpropyl)amino]methyl}-4,5-bis(methyloxy)phenyl]-3-[1-(ethylsulfonyl)-4-piperidinyl]-1H-indole-7-carboxamide]",,≤ 10 µM
"CCS(=O)(=O)N1CCC(c2c[nH]c3c(C(N)=O)cc(-c4ccc(OC)c(CNCC(C)(C)C)c4)cc23)CC1 [Example 267, 5-[3-{[(2,2-dimethylpropyl)amino]methyl}-4-(methyloxy)phenyl]-3-[1-(ethylsulfonyl)-4-piperidinyl]-1H-indole-7-carboxamide trifluoroacetate]",,≤ 10 µM
"CCS(=O)(=O)N1CCC(c2c[nH]c3c(C(N)=O)cc(-c4cccc(CNS(=O)(=O)c5ccc(F)c(F)c5)c4)cc23)CC1 [Example 384, 5-[3-({[(3,4-difluorophenyl)sulfonyl]amino}methyl)phenyl]-3-[1-(ethylsulfonyl)-4-piperidinyl]-1H-indole-7-carboxamide]",,≤ 10 µM
"CCS(=O)(=O)N1CCC(c2c[nH]c3c(C(N)=O)cc(-c4ccc(NC(C)C)nc4)cc23)CC1 [Example 228, 3-[1-(ethylsulfonyl)-4-piperidinyl]-5-{6-[(1-methylethyl)amino]-3-pyridinyl}-1H-indole-7-carboxamide trifluoroacetate]",,≤ 10 µM
"CCS(=O)(=O)N1CCC(c2c[nH]c3c(C(N)=O)cc(-c4ccc(N5CCOCC5)nc4)cc23)CC1 [Example 229, 3-[1-(ethylsulfonyl)-4-piperidinyl]-5-[6-(4-morpholinyl)-3-pyridinyl]-1H-indole-7-carboxamide]",,≤ 10 µM
"CCS(=O)(=O)N1CCC(c2c[nH]c3c(C(N)=O)cc(-c4cc(F)cc(CN5CCOCC5)c4)cc23)CC1 [Example 290, 3-[1-(ethylsulfonyl)-4-piperidinyl]-5-[3-fluoro-5-(4-morpholinylmethyl)phenyl]-1H-indole-7-carboxamide trifluoroacetate]",,≤ 10 µM
"CCS(=O)(=O)N1CCC(c2c[nH]c3c(C(N)=O)cc(-c4csc(CN5CCCC(C(F)(F)F)C5)c4)cc23)CC1 (stereo not drawn) [Example 407, 3-[1-(ethylsulfonyl)-4-piperidinyl]-5-(5-{[3-(trifluoromethyl)-1-piperidinyl]methyl}-3-thienyl)-1H-indole-7-carboxamide trifluoroacetate]",,≤ 10 µM
"CCN(C)c1ccc(-c2cc(C(N)=O)c3[nH]cc(C4CCN(S(=O)(=O)CC)CC4)c3c2)cn1 [Example 225, 5-{6-[ethyl(methyl)amino]-3-pyridinyl}-3-[1-(ethylsulfonyl)-4-piperidinyl]-1H-indole-7-carboxamide trifluoroacetate]",,≤ 10 µM
"CCCNCc1cc(F)cc(-c2cc(C(N)=O)c3[nH]cc(C4CCN(S(=O)(=O)CC)CC4)c3c2)c1 [Example 284, 3-[1-(ethylsulfonyl)-4-piperidinyl]-5-{3-fluoro-5-[(propylamino)methyl]phenyl}-1H-indole-7-carboxamide trifluoroacetate]",,≤ 10 µM
"CCNCc1cc(CNCC)cc(-c2cc(C(N)=O)c3[nH]cc(C4CCN(S(=O)(=O)CC)CC4)c3c2)c1 [Example 277, 5-{3,5-bis[(ethylamino)methyl]phenyl}-3-[1-(ethylsulfonyl)-4-piperidinyl]-1H-indole-7-carboxamide trifluoroacetate]",,> 10 µM
"CCS(=O)(=O)N1CCC(c2c[nH]c3c(C(N)=O)cc(-c4csc(CN(C)CCOCCO)c4)cc23)CC1 [Example 415, 3-[1-(ethylsulfonyl)-4-piperidinyl]-5-(5-{[{2-[(2-hydroxyethyl)oxy]ethyl}(methyl)amino]methyl}-3-thienyl)-1H-indole-7-carboxamide trifluoroacetate]",,≤ 10 µM
"CCC(CC)NCc1ccc(-c2cc(C(N)=O)c3[nH]cc(C4CCN(S(=O)(=O)CC)CC4)c3c2)cc1 [Example 142, 5-(4-{[(1-ethylpropyl)amino]methyl}phenyl)-3-[1-(ethylsulfonyl)-4-piperidinyl]-1H-indole-7-carboxamide]",,≤ 10 µM
"CCNCc1cc(F)cc(-c2cc(C(N)=O)c3[nH]cc(C4CCN(S(=O)(=O)CC)CC4)c3c2)c1 [Example 283, 5-{3-[(ethylamino)methyl]-5-fluorophenyl}-3-[1-(ethylsulfonyl)-4-piperidinyl]-1H-indole-7-carboxamide trifluoroacetate]",,≤ 10 µM
